Measurements as given in ChEMBL document CHEMBL4376803, “Recent Advances in the Exploration of Therapeutic Analogues of Gramicidin S, an Old but Still Potent Antimicrobial Peptide” (J Med Chem, 2019).
Converted amounts (≈) assume the structure as drawn.

How the values were obtained:
[1] = test system: Staphylococcus aureus; assay: Antibacterial activity against Staphylococcus aureus 209P incubated for 20 hrs by liquid microdilution method; assay type: functional
[2] = test system: Escherichia coli; assay: Antibacterial activity against Escherichia coli K-12 strain W3110 incubated for 20 hrs by liquid microdilution method; assay type: functional; conditions: K-12 substr. W3110, 20 h
[3] = Haemolytic activity in human erythrocytes incubated for 30 mins; assay type: ADME, cell-based, Erythrocyte
[4] = test system: Escherichia coli; assay: Antibacterial activity against Escherichia coli ATCC 25922 after 24 hrs by broth dilution method; assay type: functional; conditions: ATCC 25922, 24 h
[5] = test system: Pseudomonas aeruginosa; assay: Antibacterial activity against Pseudomonas aeruginosa ATCC 19582 after 24 hrs by broth dilution method; assay type: functional; conditions: ATCC 19582, 24 h
[6] = test system: Staphylococcus aureus; assay: Antibacterial activity against Staphylococcus aureus 7323; assay type: functional
[7] = test system: Enterococcus faecalis; assay: Antibacterial activity against Enterococcus faecalis 1131 after 24 hrs by broth dilution method; assay type: functional; conditions: Enterococcus faecalis, 1131, 24 h
[8] = Hemolytic activity against RBC (unknown origin) at 100 ul after 4 hrs; assay type: ADME, cell-based, Erythrocyte; conditions: red blood cells (unknown origin)
[9] = test system: Escherichia coli; assay: Antibacterial activity against Escherichia coli ATCC 25922 after 24 hrs; assay type: functional; conditions: ATCC 25922, 24 h
[10] = test system: Pseudomonas aeruginosa; assay: Antibacterial activity against Pseudomonas aeruginosa ATCC 27853 incubated for 24 hrs; assay type: functional; conditions: ATCC 27853, 24 h
[11] = test system: Staphylococcus aureus; assay: Antibacterial activity against methicillin-resistant Staphylococcus aureus NT 1110301981H-T034-PVL+ incubated for 24 hrs; assay type: functional
[12] = test system: Staphylococcus aureus; assay: Antibacterial activity against Staphylococcus aureus ATCC 29213 after 24 hrs; assay type: functional; conditions: ATCC 29213, 24 h
[13] = test system: Enterococcus faecalis; assay: Antibacterial activity against Enterococcus faecalis ATCC 29212 after 24 hrs; assay type: functional; conditions: ATCC 29212, 24 h
[14] = test system: Escherichia coli; assay: Antibacterial activity against Escherichia coli NBRC 12734 after overnight incubation by microplate dilution method; assay type: functional
[15] = test system: Bacillus subtilis; assay: Antibacterial activity against Bacillus subtilis NBRC 3513 after overnight incubation by microplate dilution method; assay type: functional
[16] = test system: Staphylococcus aureus; assay: Antibacterial activity against Staphylococcus aureus NBRC 12732 after overnight incubation by microplate dilution method; assay type: functional
[17] = test system: Priestia megaterium; assay: Antibacterial activity against Bacillus megaterium ATCC 19213 after overnight incubation by microplate dilution method; assay type: functional
[18] = Hemolytic activity in sheep RBC incubated for 30 mins; assay type: ADME, cell-based, Ovis aries, Erythrocyte; conditions: sheep red blood cells
[19] = test system: Pseudomonas aeruginosa; assay: Antibacterial activity against Pseudomonas aeruginosa NBRC 3080 after overnight incubation by microplate dilution method; assay type: functional

CC(C)C[C@@H]1NC(=O)[C@H](CCCN)NC(=O)[C@H](C(C)C)NC(=O)[C@@H]2C[C@@H](N)CN2C(=O)[C@@H](Cc2ccccc2)NC(=O)[C@H](CC(C)C)NC(=O)[C@H](CCCN)NC(=O)[C@H](C(C)C)NC(=O)[C@@H]2C[C@@H](N)CN2C(=O)[C@@H](Cc2ccccc2)NC1=O
MIC [1]: 32 µg/mL (≈ 27.3 µM) | MIC [2]: 64 µg/mL (≈ 54.6 µM)

CC(C)C[C@@H]1NC(=O)[C@H](CCCN)NC(=O)[C@H](C(C)C)NC(=O)[C@@H]2C[C@@H](N[C@@H](CCCCN)C(=O)O)CN2C(=O)[C@@H](Cc2ccccc2)NC(=O)[C@H](CC(C)C)NC(=O)[C@H](CCCN)NC(=O)[C@H](C(C)C)NC(=O)[C@@H]2C[C@@H](N[C@@H](CCCCN)C(=O)O)CN2C(=O)[C@@H](Cc2ccccc2)NC1=O [listing 1 of 2 here]
HC50 at 0.5 h [3]: > 100 µg/mL

CC(C)C[C@@H]1NC(=O)[C@H](CCCN)NC(=O)[C@H](C(C)C)NC(=O)[C@@H]2CCCN2C(=O)[C@@H](Cc2c[nH]nn2)NC(=O)[C@H](CC(C)C)NC(=O)[C@@H](CCCN)NC(=O)[C@H](C(C)C)NC(=O)[C@@H]2CCCN2C(=O)[C@@H](Cc2ccccc2)NC1=O
MIC [4]: 32 µg/mL (≈ 28.3 µM) | MIC [5]: > 64 µg/mL | MIC [6]: 16 µg/mL (≈ 14.1 µM) | MIC [7]: 64 µg/mL (≈ 56.5 µM) | HC50 at 4 h [8]: 45 to 55 µg/mL

NCCC[C@@H]1NC(=O)[C@H](C23CC4CC(CC(C4)C2)C3)NC(=O)[C@H](CCCN)NC(=O)[C@@H]2CCCN2C(=O)[C@@H](Cc2ccccc2)NC(=O)[C@H](CCCN)NC(=O)[C@H](C23CC4CC(CC(C4)C2)C3)NC(=O)[C@H](CCCN)NC(=O)[C@@H]2CCCN2C(=O)[C@@H](Cc2ccccc2)NC1=O
MIC [9]: 8 µg/mL (≈ 6.03 µM) | MIC [10]: 16 µg/mL (≈ 12.1 µM) | MIC [11]: 8 µg/mL (≈ 6.03 µM) | MIC [12]: 8 µg/mL (≈ 6.03 µM) | MIC [13]: 8 µg/mL (≈ 6.03 µM)

CC(C)C[C@@H]1NC(=O)[C@H](CCCN)NC(=O)[C@H](C(C)C)NC(=O)[C@@H]2CCCN2C(=O)[C@@H](Cc2cn(Cc3cccc4ccccc34)nn2)NC(=O)[C@H](CC(C)C)NC(=O)[C@@H](CCCN)NC(=O)[C@H](C(C)C)NC(=O)[C@@H]2CCCN2C(=O)[C@@H](Cc2ccccc2)NC1=O
MIC [4]: 64 µg/mL (≈ 50.3 µM) | MIC [5]: > 64 µg/mL | MIC [6]: 4 µg/mL (≈ 3.14 µM) | MIC [7]: 4 µg/mL (≈ 3.14 µM) | HC50 at 4 h [8]: 5 to 10 µg/mL

CC(C)C[C@@H]1NC(=O)[C@H](CCCN)NC(=O)[C@H](C(C)C)NC(=O)[C@@H]2CCCN2C(=O)[C@@H](Cc2c[nH]cn2)NC(=O)[C@H](CC(C)C)NC(=O)[C@@H](CCCN)NC(=O)[C@H](C(C)C)NC(=O)[C@@H]2CCCN2C(=O)[C@@H](Cc2ccccc2)NC1=O
MIC [4]: 8 µg/mL (≈ 7.07 µM) | MIC [5]: 16 µg/mL (≈ 14.1 µM) | MIC [6]: 4 µg/mL (≈ 3.54 µM) | MIC [7]: 16 µg/mL (≈ 14.1 µM) | HC50 at 4 h [8]: 90 to 110 µg/mL

CC(C)C[C@@H]1NC(=O)[C@H](CCCN)NC(=O)[C@H](C(C)C)NC(=O)[C@@H]2C[C@@H](N[C@@H](CCCCN)C(=O)O)CN2C(=O)[C@@H](Cc2ccccc2)NC(=O)[C@H](CC(C)C)NC(=O)[C@H](CCCN)NC(=O)[C@H](C(C)C)NC(=O)[C@@H]2C[C@@H](N[C@@H](CCCCN)C(=O)O)CN2C(=O)[C@@H](Cc2ccccc2)NC1=O [listing 2 of 2 here]
MIC [1]: 8 µg/mL (≈ 5.6 µM) | MIC [2]: 16 µg/mL (≈ 11.2 µM)

CC(C)C[C@@H]1NC(=O)[C@H](CCCN)NC(=O)[C@H](C(C)C)NC(=O)[C@@H]2CCCN2C(=O)[C@@H](Cc2ccccc2)NC(=O)[C@H](CC(C)C)NC(=O)[C@H](CCCN)NC(=O)[C@H](C(C)C)NC(=O)[C@@H]2CCCN2C(=O)NC(=O)[C@H](Cc2ccccc2)NC(=O)[C@H](CCCCN)NC1=O
MIC [14]: 25 µg/mL (≈ 19 µM) | MIC [15]: 3.13 µg/mL (≈ 2.38 µM) | MIC [16]: 3.13 µg/mL (≈ 2.38 µM) | MIC [17]: 3.13 µg/mL (≈ 2.38 µM) | HC50 at 0.5 h [18]: > 100 µg/mL | MIC [19]: 100 µg/mL (≈ 76.2 µM)

CC(C)[C@@H]1NC(=O)[C@H](CCCN)NC(=O)[C@@H]2CCCN2C(=O)[C@@H](Cc2ccccc2)NC(=O)[C@H](CCCN)NC(=O)[C@@H](C(C)C)NC(=O)[C@H](CCCN)NC(=O)[C@@H]2CCCN2C(=O)[C@@H](Cc2ccccc2)NC(=O)[C@H](CCCN)NC1=O
MIC [9]: > 64 µg/mL | MIC [10]: > 64 µg/mL | MIC [11]: > 64 µg/mL | MIC [12]: > 64 µg/mL | MIC [13]: > 64 µg/mL

CC(C)C[C@@H]1NC(=O)[C@H](CCCN)NC(=O)[C@H](C(C)C)NC(=O)[C@@H]2CCCN2C(=O)[C@@H](CCCCN)NC(=O)[C@H](CC(C)C)NC(=O)[C@@H](CCCN)NC(=O)[C@H](C(C)C)NC(=O)[C@@H]2CCCN2C(=O)[C@@H](CCCCN)NC1=O
MIC [14]: 12.5 µg/mL (≈ 11.3 µM) | MIC [15]: 6.25 µg/mL (≈ 5.66 µM) | MIC [16]: 3.13 µg/mL (≈ 2.84 µM) | MIC [17]: 3.13 µg/mL (≈ 2.84 µM) | HC50 at 0.5 h [18]: 150 to 200 µg/mL | MIC [19]: 12.5 µg/mL (≈ 11.3 µM)
